Measurements published in paper PMC7145288, “New Peptide-Based Pharmacophore Activates 20S Proteasome” (Molecules, 2020).
Square brackets hold non-standard residues; d marks the D form. Peptide text beside a SMILES is read from it. Oic = O=C(O)[C@@H]1C[C@@H]2CCCC[C@@H]2N1; dOic = O=C(O)[C@H]1C[C@H]2CCCC[C@H]2N1; Tic = O=C(O)[C@@H]1Cc2ccccc2CN1

Experiments:
[1] = test system: 20S core proteasome α face pockets; test: Competition with Rpt C-terminal tail peptides for α face pockets (ChT-L activity); assay type: biochemical, human; settings: Rpt peptide 1 μM added before TAT peptide; for Competition with Rpt tail peptides (in words, from radar plot scores): Rpt2 α3/α4, Rpt3 α1/α2, Rpt5 α5/α6, Rpt6 α2/α3 pocket, three to six experiments; for Enhanced (synergistic) activation with Rpt tail peptides (in words): Rpt5 or Rpt6 tails
Source text: As mentioned above, the binding pockets on the α face accept “anchors” from natural protein ligands of the 20S core. […] The 10-residue Rpt-derived C-terminal “tail” peptides (“Rpt peptides”) can be used as competitors with the Rpt subunits or with small allosteric ligands. Importantly, the Rpt peptides interject between the subunits with their C-termini, whereas TAT peptides, according to the modeling, use their N-termini for this purpose. To test the specificity of interactions between TAT compounds and the α face, we performed competition experiments. The 20S core was challenged with selected TAT compounds after treatment with Rpt peptides. We selected peptides of Rpt2 ([…]), Rpt3 ([…]), Rpt5 ([…]) and Rpt6 […]) subunits, docking in α3/α4, α1/α2, α5/α6 and α2/α3 pockets, respectively. Tails of Rpt2, 3, and 5 display the canonical HbYX motif, whereas the LeuTrpLys C-terminus of Rpt6 may be considered “pseudo-HbYX”, with a bulky Trp replacing Tyr. Results of the competition experiments are presented as radar plots in Figure 7. […] This pocket also emerged as the major binding site for (1) and (8). However, these compounds likely weakly competed with the Rpt2 tail for binding to the α3/α4 pocket as well. The α3/α4 pocket seemed to be favored by (6). […] These complex patterns point at the importance of allosteric effects between the α face ligands, the gate and the catalytic chamber.
Figure 7 TAT1 derivatives competed with selected C-terminal tails of Rpt (Regulatory Particle ATPases) subunits for binding to specific α face pockets. The scores presented in radar plots were calculated as ((relative activation by the [x] and Rpt tail)-(theoretical sum of activation by [x] and Rpt tail))/(theoretical sum of activation by [x] and Rpt tail), where [x] represent any TAT peptide. […] The positive scores for combinations of selected compounds with Rpt5 or Rpt6 tails indicated a presumed synergy in activation of the core. Average scores derived from three to six experiments are presented. The competition effects were statistically significant (at least p < 0.05) for Rpt3 peptide and (1) and (8), as well as for Rpt2 peptide and (6).
Human housekeeping core (20S) proteasome purified from erythrocytes was purchased from Boston Biochem, Inc. (Cambridge, MA) or from Enzo Life Sciences, Inc. (Farmingdale, NY). Multiple batches of the proteasomes were used and performed reproducibly. The stock proteasome was diluted to 0.2 mg/mL working solution in “dilution buffer” (50 mM Tris/HCl, pH 8, 20% glycerol). The following model peptide substrates, all releasing fluorescent 7-amino-4-methylcoumarin (AMC) reporter group after cleavage, were used: succinyl-LeuLeuValTyr-AMC (for the ChT-L peptidase; SucLLVY-AMC; Bachem Bioscience Inc., Philadelphia, PA), butoxycarbonyl-LeuArgArg-AMC (T-L; Bachem Bioscience Inc., Philadelphia, PA) and carbobenzoxy- LeuLeuGlu-AMC (PGPH; Enzo Life Sciences Inc., Farmingdale, NY). The substrates were used at concentration of 50 μM (ChT-L) or 100 μM (T-L, PGPH). Free AMC (Sigma-Aldrich, St. Louis, MO) was used as the standard. The C-terminal peptides derived from Rpt2, Rpt3, Rpt5 and Rpt6 were synthesized (standard solid-phase peptide chemistry) and purified to at least 98% purity by GenScript (Piscataway, NJ). The TAT peptides, Rpt peptides (except Rpt6) and the peptide substrates were dissolved in anhydrous dimethylsulfoxide (DMSO; Sigma-Aldrich, St. Louis, MO) and such stock solutions were stored at −20 °C. The total concentration of DMSO in final reaction mixtures never exceeded 3% (vol/vol). The Trp (tryptophan) -containing Rpt6 peptide was dissolved in ultrapure water and stored at −20 °C, protected from light. […]

[2] = test system: proteasome ChT-L activity in SK-N-SH (ATCC HTB-11) cell lysates; test: ChT-L proteasome activity in lysates of treated SK-N-SH cells; assay type: cell-based, human
Procedure: […] The content of live cells was determined by the Trypan Blue-exclusion assay. The cells were harvested, washed twice in PBS, resuspended in dilution buffer (see above) and stored in −80 °C. To prepare lysates the thawed preparations were vortexed with glass beads and centrifuged for 5 min 5000× g (4 °C). The supernatant was centrifuged for 20 min 14,000× g (4 °C). The resulting supernatant—“crude lysate” was diluted to 1 mg/mL of total protein with dilution buffer. 1 μg of lysate per assay (reaction buffer: 50 mM Tris/HCl pH 8, 0.1 mM MgCl2, 0.2 mM ATP, 0.1 mM dithiothreitol, 50 μM Suc-LLVY-AMC) was used for determination of ChT-L activity in a 96-well format, as above.

[3] = molecular target: T1, human latent 20S core proteasome, chymotrypsin-like (ChT-L) activity (Homo sapiens, UniProt P25787+P60900); test: ChT-L peptidase activity of latent 20S proteasome (Suc-LLVY-AMC); assay type: biochemical; settings: for Max Activation Fold ± SE: purified latent 20S, Tris/HCl pH 8, 50 μM Suc-LLVY-AMC, 37 °C, from fitted response curves, SEM
T1 construct: Human housekeeping core (20S) proteasome purified from erythrocytes; purchased Boston Biochem, Inc. or Enzo Life Sciences, Inc; host or cells: human erythrocytes (natural source)
Procedure: The stock proteasome was diluted to 0.2 mg/mL working solution in “dilution buffer” (50 mM Tris/HCl, pH 8, 20% glycerol). […] The substrates were used at concentration of 50 μM (ChT-L) or 100 μM (T-L, PGPH). […] The total concentration of DMSO in final reaction mixtures never exceeded 3% (vol/vol). […] The reaction was carried out in 96-well plates, in 100 μL of reaction mixture that consisted of 45 mM Tris/HCl, pH 8, 100 mM KCl, 1 mM EDTA (reaction buffer) and a fluorogenic peptide substrate, to which 200 ng (nearly […]) of proteasome were added. […] The proteasome was preincubated with a substrate for 10 min at room temperature, then 1 μL of DMSO or a desired concentration of a TAT peptide in 1 μL of DMSO were added. […] To test the competition with Rpt derived peptides, the Rpt peptide (1 μM) was added before the TAT peptide to the reaction mixture. The reaction rates were calculated from a linear segment of kinetic curves constructed from measurements in 1-min intervals.
A two-tailed t-test was applied to compare the means. The comparisons were allowing for unequal variances with a Welch correction. Abundance of proteasome conformers was compared with the chi squared test and two-sample proportion test. A significance level was set at 0.05. […] Reaction rates were calculated from a smoothed linear segment of kinetic traces using OriginPro 2019. Response curves (activity vs. compound concentration) were fitted with a nonlinear fitting application of OriginPro 2019. The AC50 and maximum activation fold was calculated based on the equations implemented to fit the response curves.

| SMILES | Competition with Rpt tail peptides (in words, from radar plot scores) [1] | Enhanced (synergistic) activation with Rpt tail peptides (in words) [1] | Proteasome ChT-L activity in lysates of treated cells versus control lysates (in words) ([2]; SK-N-SH cells, 1 µM peptide, 24 h, 1 μg lysate, 50 μM Suc-LLVY-AMC, n = 3–4) | Abolition of ChT-L activity in cell lysates ([2]; 1 µM bortezomib added to lysates from control and TAT-exposed SK-N-SH cells) [%] | Max Activation Fold ± SE [3] [fold] | Ability to activate ChT-L activity of latent 20S (in words) ([3]; titration, latent human 20S, Suc-LLVY-AMC, n = 3–8) |
| --- | --- | --- | --- | --- | --- | --- |
| NCCCC[C@H](NC(=O)[C@H](CCCCN)NC(=O)[C@H](CCCCN)NC(=O)[C@@H]1C[C@@H]2CCCC[C@@H]2N1C(=O)[C@@H]1Cc2ccccc2CN1C(=O)[C@H](CCCCN)NC(=O)[C@H](CCCCN)NC(=O)[C@@H](N)CCCCN)C(=O)O [(6)] | Rpt2 tail was a major competitor | enhanced activation in the presence of one of Rpt tails, namely Rpt5 or Rpt6 | – | – | – | – |
| N=C(N)NCCC[C@H](NC(=O)CN)C(=O)N[C@@H](CCCCN)C(=O)N[C@@H](CCCCN)C(=O)N[C@@H](CCCNC(=N)N)C(=O)N[C@@H](CCCNC(=N)N)C(=O)N[C@@H](CCC(N)=O)C(=O)N[C@@H](CCCNC(=N)N)C(=O)N[C@@H](CCCNC(=N)N)C(=O)N[C@@H](CCCNC(=N)N)C(=O)N1CCC[C@H]1C(=O)N[C@@H](CO)C(=O)O [(1)] | added a weakly negative score for the Rpt2 tail to the presumed major competitor Rpt3 | enhanced activation in the presence of one of Rpt tails, namely Rpt5 or Rpt6 | lack of significant activation | – | – | – |
| CC(C)C[C@H](NC(=O)[C@H](Cc1ccccc1)NC(=O)c1cnccn1)B(O)O [bortezomib, reference compound] | – | – | – | > 85 | – | – |
| N=C(N)NCCC[C@H](NC(=O)CN)C(=O)N[C@@H](CCCCN)C(=O)N1Cc2ccccc2C[C@H]1C(=O)N1[C@H](C(=O)N[C@@H](CCCNC(=N)N)C(=O)N[C@@H](CCC(N)=O)C(=O)N[C@@H](CCCNC(=N)N)C(=O)N[C@@H](CCCNC(=N)N)C(=O)N[C@@H](CCCNC(=N)N)C(=O)N2CCC[C@H]2C(=O)N[C@@H](CO)C(=O)O)C[C@@H]2CCCC[C@@H]21 [(3)] (H-GRK[Tic][Oic]RQRRRPS-OH; N-terminus and C-terminus assumed) | – | – | – | – | 3.3 ± 0.23 | – |
| N=C(N)NCCC[C@H](NC(=O)CN)C(=O)N[C@@H](CCCCN)C(=O)N1Cc2ccccc2C[C@H]1C(=O)N1[C@H](C(=O)N[C@@H](CCCNC(=N)N)C(=O)N[C@@H](CCC(N)=O)C(=O)N2Cc3ccccc3C[C@H]2C(=O)N2[C@@H](C(=O)N[C@@H](CCCNC(=N)N)C(=O)N3CCC[C@H]3C(=O)N[C@@H](CO)C(=O)O)C[C@H]3CCCC[C@H]32)C[C@@H]2CCCC[C@@H]21 [(2)] (H-GRK[Tic][Oic]RQ[Tic][dOic]RPS-OH; N-terminus and C-terminus assumed) | competing with Rpt2, Rpt3, and Rpt5 tails | synergy was especially pronounced for the Rpt6-(2) pair | – | – | 1.5 ± 0.26 | very poor activator |
